Results on three compounds are retold here after article PMC9961069 (Metabolites, 2023).

The structures appear in SMILES notation.

For assay [1], the system named is MDA-MB-231 cells. Put plainly: LC/MS-based metabolite profiling. The conditions noted are these: 24 h; for AICAR levels with FA treatment / Orotate levels with FA supplementation: 10 μM + 300 μg/mL FA; for AICAR levels / Orotate levels / UDP level: 10 μM; for AICAR levels / Orotate levels: inhibitor alone; for UDP level: inhibitor alone versus DMSO. Type of assay: cell-based, Human. The method, then:
For characterization by mass spectrometry, MDA-MB-231 cells were seeded at a density of 3 × 10^5 cells per well in 6-well plates. […] DMSO only and DMSO + folinic acid controls were also performed. Per condition, biological quadruplicates of approximately one million cells were harvested, washed briefly with 1 mL of 0.9% NaCl (prepared in LC/MS-grade water Fisher Scientific W6500), and extracted in 500 μL prechilled extraction buffer (80% LC/MS-grade methanol, 20% 125 mM ammonium acetate, 12.5 mM sodium ascorbate prepared in LC/MS-grade water and supplemented with aminopterin (catalog no.: 16.330; Schircks Laboratories) and isotopically labeled internal standards (17 amino acids and reduced glutathione [Cambridge Isotope Laboratories; MSK- A2-1.2 and CNLM-6245-10])) using a cell scraper. After centrifugation for 10 min, 4 °C, at maximum speed on a benchtop centrifuge (Eppendorf), the cleared supernatant was transferred to a new tube and dried using a nitrogen dryer (Reacti-Vap™ Evaporator, Thermo Fisher Scientific, TS-18826) while on ice. Once the drying process was completed, samples were reconstituted in 50 µL QReSS water (Cambridge Isotope Laboratories, MSK-QRESS-KIT) by brief sonication in a 4 °C water bath. Extracted metabolites were spun for 3 min, 4 °C, at maximum speed on a bench-top centrifuge, and cleared supernatant was transferred to LC/MS microvials (National Scientific, C5000-45B). Three microliters of each sample were pooled and serially diluted 3- and 10-fold to be used as quality controls throughout the run of each batch. Unlabeled QReSS metabolites (Cambridge Isotope Laboratories, MSK-QReSS-US-KIT) and unlabeled amino acid mix standard (Cambridge Isotope Laboratories, MSK-A2-US-1.2) were also included in the run to ensure high-quality metabolomics results.
One microliter (equivalent to 2 × 10^4 cells) of the reconstituted sample was injected into a ZIC-pHILIC 150 × 2.1 mm (5 µm particle size) column (EMD Millipore) operated on a Vanquish™ Flex UHPLC Systems (Thermo Fisher Scientific, San Jose, CA, USA). Chromatographic separation was achieved using the following conditions: buffer A was acetonitrile; buffer B was 20 mM ammonium carbonate, 0.1% ammonium hydroxide. Gradient conditions were: linear gradient from 20% to 80% B; 20–20.5 min: from 80% to 20% B; 20.5–28 min: hold at 20% B. The column oven and autosampler tray were held at 25 °C and 4 °C, respectively.
Mass spectrometry data acquisition was performed using a QExactive benchtop orbitrap mass spectrometer equipped with an Ion Max source and a HESI II probe (Thermo Fisher Scientific, San Jose, CA, USA) and was performed in positive and negative ionization mode in a range of m/z = 70–1000, with the resolution set at 70,000, the AGC target at 1 × 10^6, and the maximum injection time (Max IT) at 20 msec. For nucleotide tSIM scans, the resolution was set at 70,000, the AGC target was 1 × 10^5, and the max IT was 100 msec.
Manual curation and integration of chromatographic peaks were performed with TraceFinder 4.1 (Thermo Fisher Scientific, Waltham, MA, USA) using a 5 ppm mass tolerance and referencing an in-house library of chemical standards. Data from TraceFinder were further consolidated and normalized with an in-house R script: (https://github.com/FrozenGas/KanarekLabTraceFinderRScripts/blob/main/MS_data_script_v2.4_20221018.R (accessed on 22 November 2022)). Briefly, this script performs normalization and quality control steps: (1) extracts and combines the peak areas from TraceFinder output .csvs; (2) calculates and normalizes to an averaged factor from all mean-centered chromatographic peak areas of isotopically labeled amino acids internal standards within each sample; (3) filters out low-quality metabolites based on user inputted cut-offs calculated from pool reinjections and pool dilutions; (4) calculates and normalizes for biological material amounts based on the total integrated peak area values of high-confidence metabolites. […]

In assay [2] the test system is MDA-MB-468 cells. The assay can be described thus: Resazurin viability assay with or without folinic acid, MDA-MB-468. The assay is classed as cell-based, Human. The conditions noted are these: 72 h; for Rescue of viability impairment by folinic acid: MDA-MB-468, 10 μM ± 300 μg/mL FA. The method, then:
(§1) The incorporation and metabolism of resazurin to resorufin was used to monitor cell viability. MDA-MB-468, MCF7, and MDA-MB-231 cells were grown in 96-well plates with a total of 5000 cells per well in a total volume of 180 μL for 24 h, as described above. After 24 h of growth, cells were treated with increasing concentrations of compounds (0.0457–100 μM) for 72 h. A vehicle control was also performed. […] The volume of treatment added to each well was 20 μL. For folinic acid rescue experiments, 5000 cells were treated with 10 μM compound with or without 300 μg/mL folinic acid (Supelco). After 72 h of treatment, resazurin was added to a final concentration of 44 μM, and cells were incubated for an additional 4 h at 37 °C. The fluorescence of resorufin was monitored on a Synergy MX microplate reader (BioTek) using an excitation wavelength of 540 nm and an emission wavelength of 600 nm. Percent viability relative to the DMSO control was determined. Each treatment was performed in triplicate, and each individual experiment was repeated three times (n = 3).
On the technique in general: The colour change of resazurin is a common sign of viable cells or microbes.

Assay [3] concerns T1, thymidine phosphorylase (TP) in MDA-MB-468 cell lysates.
T1 construct: MDA-MB-468 lysates were treated with 10 μM each; endogenous in cells; host or cells: MDA-MB-468
The assay can be described thus: Lysate CETSA for thymidine phosphorylase. Type of assay: binding, Human. The conditions noted are these: 10 μM, 65 °C, n = 1.

Assay [4] has as its system MDA-MB-231 cells. The assay can be described thus: Resazurin viability assay with or without folinic acid, MDA-MB-231. Type of assay: cell-based, Human. The conditions noted are these: 72 h. As to the method: as §1
Assay [5] relates to MDA-MB468, MDA-MB-231, and MCF-7 breast cancer cell lines. Put plainly: Dose-response viability in breast cancer cell lines (statements not split by line). Type of assay: cell-based, Human. The conditions noted are these: 0–100 μM, 72 h. The method, then:
as §1

As for `CC1(C)N=C(N)N=C(N)N1c1ccc(Cl)cc1` [Cyc, Cycloguanil], in assay [1], the “AICAR levels with FA treatment” value was “returned AICAR to the same levels as vehicle controls”, the “Orotate levels with FA supplementation” value is reported as “returned orotate to vehicle control levels”, the “AICAR levels” value is reported as “much larger increases in AICAR” and the “Orotate levels” value is on record as “decreased or statistically insignificant changes in orotate levels”. For the same compound, the “UDP level” value in assay [1] is on record as “significantly depleted”.

On to `CCc1nc(N)nc(N)c1-c1ccc(Cl)cc1` [Pyr, Pyrimethamine], for which, in assay [2], the “Rescue of viability impairment by folinic acid” value (from here on “Rescue of viability impairment”) is on record as “statistically significant rescue”. Besides, in assay [1], the “AICAR levels with FA treatment” value was “returned AICAR to the same levels as vehicle controls”, the “Orotate levels with FA supplementation” value is listed as “returned orotate to vehicle control levels”, the “AICAR levels” value is given as “much larger increases in AICAR” and the “Orotate levels” value is reported as “decreased or statistically insignificant changes in orotate levels”. The “UDP level” value in assay [1] is on record as “significantly depleted”. Also, in assay [3], the “TP stabilization by CETSA” value is listed as “no stabilization of TP was detected”.

With `CC1(C)N=C(N)N=C(N)N1c1ccc(CCCCc2ccc(S(=O)(=O)F)cc2)c(Cl)c1` [compound 127159], the “Relative Viability (%) – Inhibitor + FA Treatment” value in assay [4] (MDA-MB-231, 10 μM + 300 μg/mL folinic acid) worked out at 106.42 ± 15.0%. Besides, in assay [4] (MDA-MB-231, 10 μM ± 300 μg/mL FA), the “Rescue of viability impairment” value is “largest amplitude of rescue”. Besides, the “Relative Viability (%) – Inhibitor Alone” value in assay [4] (MDA-MB-231, 10 μM, relative to DMSO) was found to be 50.08 ± 8.8%. The “Relative Viability (%) – Inhibitor + FA Treatment” value in assay [2] (MDA-MB-468, 10 μM + 300 μg/mL folinic acid) is on record as 77.23 ± 7.2%. The “Rescue of viability impairment” value in assay [2] is given as “rescued in all but MDA-MB-468 cells”. The “Relative Viability (%) – Inhibitor Alone” value in assay [2] (MDA-MB-468, 10 μM, relative to DMSO) amounted to 70.45 ± 7.8%. For the same compound, in assay [1], the “AICAR levels with FA treatment” value is “further increased AICAR”; the “Orotate levels with FA supplementation” value is listed as “orotate remained elevated in the presence of FA”; the “AICAR levels” value is on record as “increased slightly, yet significantly”; the “Orotate levels” value is listed as “stark increase in orotate levels”. Besides, the “UDP level” value in assay [1] is “not upon treatment with MTX and 127159 alone”. In assay [5], the “Phenotypic response in viability dose-response” value is “little effect at low concentrations and cytotoxicity at higher concentrations”.
